Data taken from US8569511B2, “Substituted 3-(1H-benzo[d]imidazol-2-yl)-1H-indazole analogs as inhibitors of the PDK1 kinase” (University of Utah Research Foundation, priority 2011, dated 2013).
Where two headings read alike, the source gives them in different places.

Tests used:
HEC-1A cells = assay: Cell viability assay (ATP-lite); type: cell-based; settings: for IC50: Homo sapiens
Experimental: (§1) AN3-CA (PTEN-deficient), RL95-2 (PTEN-deficient), and HEC-1A (PTEN-wild type) cells were plated in 45 μl of RPMI-1640 media supplemented with 10% FBS and 1% Pen/Strep at a density of 1000 cells per well in white 384-well plates. Cells were allowed to attach by incubation overnight at 37° C. and 5% CO2. Test compounds were diluted to 10× concentrations in RPMI-1640 media (containing 3% DMSO) and 5 μl 1 of these dilutions were added in triplicate to the appropriate wells containing the cells. The plates containing the drug-treated cells and appropriate controls were incubated for 96 hours. At the end of the incubation, 40 μl of ATP-lite (PerkinElmer, Inc., Waltham, Massachussetts) reagent were added to each well and luminescence signal was measured on an EnVision microplate reader.
(§2) Alternatively, AN3-CA, RL95-2, HEC-1A endometrial cancer cell lines were plated at a density of 2000 cells per well in a 96 well culture plate in 45 μl of cell culture media and incubated overnight. […] Vehicle treated controls were also included and each condition was applied in quadruplicate. Following 96 hours of incubation, 35 μL of ATP-lite (PerkinElmer) reagent was added each well and allowed to react for 10 minutes. Plate was read on a Envision 2104 MultiLabel reader (PerkinElmer).
(§3) IC50 values are determined using GraphPad Prism 5 software. The data were entered as an X-Y plot into the software as percent inhibition for each concentration of the drug. The concentration values of the drug were log transformed and the nonlinear regression was carried out using the “sigmoidal dose-response (variable slope)” option within the GraphPad software to model the data and calculate IC50 values.

RL95-2 cells = assay: Cell viability assay (ATP-lite); type: cell-based; settings: for IC50: Homo sapiens
Experimental: as §1, §2, §3

O=C(Nc1ccc2[nH]nc(-c3nc4ccc(N5CCOCC5)cc4[nH]3)c2c1)C1CC1(F)F (stereo not shown) [Compound 1, 2,2-difluoro-N-(3-(5-morpholino-1H-benzo[d]imidazol-2-yl)-1H-indazol-5-yl)cyclopropanecarboxamide]
Potency in cell viability assay, HEC-1A (in words) (HEC-1A cells; FIG. 6): relatively inactive
IC50 (HEC-1A cells; HEC-1-A, Table VI panel, mutation KRAS, PIK3CA, read-out: IC50 cell viability, Hec-1A): 3.76 µM
IC50 (HEC-1A cells; HEC-1A (PTEN-wild type), read-out: Cell Viability IC50 HEC-1A): 3.78 µM
Potency in cell viability assay, RL-95-2 (in words) (RL95-2 cells; FIG. 6): moderately potent
IC50 (RL95-2 cells; RL95-2, Table VI panel, mutation PTEN, HRAS, read-out: IC50 cell viability, RL95-2): 654 nM
IC50 (RL95-2 cells; RL95-2, read-out: IC50 cell viability, RL-95-A): 479 nM
IC50 (RL95-2 cells; RL95-2 (PTEN mutation), read-out: Cell Viability IC50 RL95-2): 479 nM
